Columns and labels:
[1] = test system: human aorta endothelial cells (HAECs); assay: Nitric oxide in HAEC culture supernatants; type: cell-based; conditions: 0.001-10 μM ABA
Method: FIG. 7 are graphs showing effect of ABA on (A) cAMP; (B) NO; and (C) eNOS. (A) Confluent human aortic endothelial cell (HAEC) were serum-starved using HBSS buffer for 30 min and then stimulated with various concentrations of ABA (0, 0.01, 0.1, 1, 10 μM) or Forskolin (1 μM) for […]. After removing supernatant, cells were lysated with 0.1 M HCL for 20 minutes to measure non-acetylated cAMP. (B) Confluent HAEC were serum-starved using HBSS buffer for 30 minutes and then stimulated with various concentrations of ABA (0, 0.001, 0.01, 0.1, 1, 10 μM) for 15 minutes to measure NO. Results (pmol/ml) from four independent experiments are depicted. […]
Confluent human aorta endothelial cells (HAECs) at passage 3 maintained with EGM-2 media (Clonetics, Walkerville, Md.) were adapted to Hank's buffered salt solution buffer for 30 min and then stimulated with ABA or forskolin (1 μM) for 10 min. For intracellular assessment of cAMP, the cells were harvested into 0.1 M HCL and the lysates were obtained by sonication and centrifugation. cAMP the lysates were determined by using an EIA kit (Assay Designs, Ann Arbor, Mich.) and results were obtained from four independent experiments. Nitric oxide levels in the cell culture supernatants were determined with the Nitric Oxide Assay Kit according to manufacturer's instructions (Assay Designs). […]

ApoE-deficient mice = assay: Histology analyses of the aorta (areas, thickness, lesion severity); type: in vivo
Method: FIG. 4 are photos and graphs showing aortas collected on day 84 of dietary intervention. Representative photomicrographs (100×) of aortic root specimens from (A) control and (B) ABA-fed mice. (C) Analysis of lumenal areas and (D) tunica media areas were performed with aortic cross-sections using Image Pro Plus software. (E) Aortic thickness was analyzed as a ratio of the intima to the media. Gene expression in the aorta of (F) endothelial nitric oxide synthase (eNOS) and (G) 15-lipoxygenase (15-LOX) were measured as a ratio to the house-keeping gene β-actin. Data were analyzed as a completely randomized design.
FIG. 5 are photos and graphs showing histological examination of aortic lesions. ApoE −/− mice were fed high fat diets created with or without abscisic acid (ABA, 100 mg/kg diet). After 84 days aortas were excised and lesions were analyzed histologically according to methods described by van Vlijmen et al[13]. Representative photomicrographs (100×) of a (A) mild and (B) severe lesion are depicted. (C) The total number of mild (categories 1-3) and severe (categories 4-5) lesions from control and ABA-fed mice are shown. (D) Lesional areas, as a percent of total lumen area, for control and ABA-fed mice were calculated from histological sections with Image Pro Plus software. Data are represented as mean±standard error.
The aortic root sections used for histological analyses were perfusion-fixed with paraformaldehyde. Samples of aortas were cut transversally, stained with hematoxylin and eosin, and analyzed histologically. Areas for the lumen, tunica media, and aortic lesions and the thicknesses of the tunica intima and media were assessed using Image Pro Plus 6.1 software (Media Cybernetics, Bethesda, Md.). For thickness analyses, eight different measurements from the intima and media were taken using previously described methods (Hazell et al., Free Radic. Biol. Med. 31:1254-62, 2001). For semiquantitative assessment of lesion severity, methods described by van Vlijmen et al were used (van Vlijmen et al., J. Clin. Invest. 93:1403-10, 1994). Briefly, lesions were classified into five categories (1) early fatty streak: per section up to 10 foam cells present in the intima, (2) regular fatty streak: more than 10 cells present in the intima, (3) mild plaque: extension of foam cells into the media and mild fibrosis of the media without significant loss in architecture, (4) moderate plaque: foam cells in media, fibrosis, cholesterol clefts, mineralization, and/or necrosis of the media, (5) severe plaque: as 4 but more extensive and deeper in the media. Scoring classifications were applied to 15 lesions from control and ABA-fed mice. Lesions falling in categories 1-3 were classified as mild and 4-5 as severe.

MCP-1 = MCP-1 concentrations in plasma by ELISA; type: in vivo, mice; conditions: P=0.10
Method: (§1) FIG. 6 are graphs showing that ABA decreases immune cell infiltration in aortas of ApoE−/− mice and reduces pro-inflammatory gene expression. ApoE −/− mice were fed high fat diets created with or without 100 mg/kg diet racemic abscisic acid (ABA). (A) Infiltration of F4/80^+CD11b^+ macrophages and CD4^+ T-cells into the aorta were assessed with flow cytometry. Gene expression in the aorta of pro-inflammatory markers (B) vascular cell adhesion molecule 1 (VCAM-1), (C) monocyte chemoattractant protein 1 (MCP-1), (D) E-selectin, (F) peroxisome proliferator-activated receptor γ (PPAR γ), and (G) CD36 were measured as a ratio to the housekeeping gene β-actin. (H) MCP-1 protein concentrations (pg/mL) were measured by ELISA. Data were analyzed as a completely randomized design.
A Ready-set-go MCP-1 ELISA (ebioscience) was used to quantify plasma MCP-1 according to the manufacturer's instructions.

[2] = test system: F4/80+CD11b+ macrophages and CD4+ T-cells; assay: Flow cytometry of immune cell infiltration into the aortic root; type: in vivo, mice; conditions: day 84, flow cytometry
Method: as §1
After euthanization, mouse hearts were perfused with PBS for 2 minutes. Aortas were then extracted. Aortic roots were cut into small […] pieces, and placed in 1× Hanks Balanced Sodium Salt Solution (HBSS) containing 0.2% type II collagenase (Worthington Biochemicals). After digestion at 37° C. for 1 hour, samples were sent through a […] nylon filter (BD), washed with HBSS, and centrifuged at 1200 rpm for 10 min. Cell suspensions were then resuspended in FACS buffer and enumerated by using a Z1 Single Particle Counter (Beckman Coulter). […]

Question: Which NO production [1] does the source give for `CC1=CC(=O)CC(C)(C)C1(O)/C=C/C(C)=C\C(=O)O` (racemic) [ABA, abscisic acid] here?
Answer: enhanced NO production

Question: And the “Lesion area as a percent of total lumenal area vs control” value (ApoE-deficient mice; day 84)?
Answer: significantly decreased

Question: And the “Aortic luminal area vs control” value (ApoE-deficient mice; day 84, aortic cross-sections)?
Answer: no significant differences

Question: And the “Aortic tunica media area vs control” value (ApoE-deficient mice; day 84, aortic cross-sections)?
Answer: no significant differences

Question: And the “Intima to media ratio vs control” value (ApoE-deficient mice; day 84, aortic root)?
Answer: significantly lower

Question: What about the “Number of mild lesions (categories 1-3)” value (ApoE-deficient mice; of 15 lesions scored, day 84) of the same molecule?
Answer: 10

Question: What about the “Number of severe lesions (categories 4-5)” value (ApoE-deficient mice; of 15 lesions scored, day 84, control-fed mice 8 of 15) of the same molecule?
Answer: 5

Question: What about the “Plasma MCP-1 concentrations vs control” value (MCP-1) of the same molecule?
Answer: decreased

Question: What about the “Recruitment of CD4+ T-cells in the aortic root vs control” value [2] of the same molecule?
Answer: significantly reduces recruitment

Question: And the “Recruitment of F4/80+CD11b+ macrophages in the aortic root vs control” value [2]?
Answer: significantly reduces recruitment

Source: US20110054033A1, “METHODS OF USING ABSCISIC ACID FOR AMELIORATING HYPERTENSION AND VASCULAR INFLAMMATION” (Virginia Tech Intellectual Properties, Inc., priority 2009, published 2011)
